The record followed here is patent US12679878B2, “CRF2 receptor agonists and their use in therapy” (SANOFI, priority 2020, dated 2026).

Type in all cases: cell-based
Test [1] deals with rat CRF2R α receptor. The test can be described thus: cAMP agonism at rat CRF2R α receptor in A7R5 rat aortic smooth muscle cells (Example 8). To be noted: cAMP HTRF, A7R5 rat aortic smooth muscle cell line, 0% HSA. In a few lines: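 Potency (EC50) is the concentration reaching half-maximal activation, with responses scaled so that 1000 nM urocortin 2 equals 100%. Intracellular cAMP was quantified by homogeneous time-resolved fluorescence at 665/620 nm, 1 h after lysis-buffer reagents. Compound stimulation lasted 30 min at room temperature on 2000 IBMX-treated (2 mM) cells per well in HEPES-buffered HBSS.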
For orientation: In TR-FRET formats the signal depends on donor and acceptor labels being close together.

The target of test [2] is T1, CRF1R receptor (Homo sapiens, UniProt P34998).
T1 construct: host or cells: CHO-K1 clone 2
T1 sequence (P34998 24-415): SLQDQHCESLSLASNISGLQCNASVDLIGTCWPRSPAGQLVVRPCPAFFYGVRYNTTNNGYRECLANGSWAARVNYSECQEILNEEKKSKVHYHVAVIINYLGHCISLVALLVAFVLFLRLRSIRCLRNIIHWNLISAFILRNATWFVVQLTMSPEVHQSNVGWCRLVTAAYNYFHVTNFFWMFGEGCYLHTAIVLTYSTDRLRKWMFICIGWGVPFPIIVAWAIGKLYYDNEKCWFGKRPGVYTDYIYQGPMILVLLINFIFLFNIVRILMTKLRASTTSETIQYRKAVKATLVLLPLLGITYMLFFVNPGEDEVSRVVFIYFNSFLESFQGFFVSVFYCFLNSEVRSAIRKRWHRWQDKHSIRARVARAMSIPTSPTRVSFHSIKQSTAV
The experiment in a line: cAMP activity at anti-target CRF1R, CHO-K1 cell line clone 2 (Example 19.10). To be noted: 100% = Sauvagine at 100 nM; CRF1R CHO-K1 clone 2. In a few lines: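 The cAMP read-out used the same protocol as the previous assay, except that Sauvagine at 100 nM set the 100% activation control. Cells were CHO-K1 clone 2 overexpressing CRF1R, cultured in F12 medium with 10% FBS and G418 and stored frozen until use.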

The target in test [3] is T1, CRF1R receptor. The experiment in a line: cAMP activity at anti-target CRF1R, CRF1R-overexpression CHO cell line (Example 9). To be noted: CRF1R-overexpression CHO cell line; read-out: Emax (%). In a few lines: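 Using thawed CRF1R-overexpressing CHO cells at 2000 per well, compound is applied for 30 min at RT in HBSS/HEPES buffer with IBMX. Cellular cAMP content is determined via HTRF, and percent activity is calculated against 1000 nM UCN2 defined as 100%.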

For test [4], the target named is T2, human CRF2α receptor (Homo sapiens, UniProt Q13324).
T2 construct: expressed in transfected cells; host or cells: TeloHEAC
T2 sequence (Q13324 1-411): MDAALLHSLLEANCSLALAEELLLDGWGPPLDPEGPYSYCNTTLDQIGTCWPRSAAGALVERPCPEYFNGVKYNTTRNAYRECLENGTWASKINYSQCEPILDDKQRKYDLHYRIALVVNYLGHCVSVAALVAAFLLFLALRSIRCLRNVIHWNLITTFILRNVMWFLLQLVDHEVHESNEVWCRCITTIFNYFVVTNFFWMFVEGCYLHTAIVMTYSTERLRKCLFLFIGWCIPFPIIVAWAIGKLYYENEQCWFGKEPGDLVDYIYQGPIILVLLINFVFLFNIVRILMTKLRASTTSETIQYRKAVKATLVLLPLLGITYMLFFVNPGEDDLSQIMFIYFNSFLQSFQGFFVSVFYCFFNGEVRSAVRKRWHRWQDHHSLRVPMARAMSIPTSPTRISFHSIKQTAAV
The test can be described thus: cAMP agonism at human CRF2 α receptor in TeloHEAC cells (Example 7). To be noted: cAMP HTRF, TeloHEAC cells stably expressing human CRF2 α. In a few lines: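 Percent activation was referenced to 1000 nM UCN2 (100%), and EC50 values taken as concentrations giving half of maximal response. The read-out was a homogeneous time-resolved fluorescence cAMP kit, fluorescence ratio 665/620 nm. Thawed cells (2000/well) saw compound for 30 min at RT in buffer with 2 mM IBMX and 0%/0.1% HSA.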

Read-outs that look alike come from different tables or passages of the source. Starred links: 1 amine or outer side, 2 acyl side, 3 side chain; linkers in the order of their positions; H or OH if unused. Non-standard residues stand in square brackets, D forms with d. Residues, ends and D or L forms follow the SMILES beside them. Groups on a side chain read outwards from the residue. *: point of attachment. C18 diacid = O=C(O)CCCCCCCCCCCCCCCCC(=O)*; γGlu = O=C(O)[C@H](CCC(=O)[*:2])N[*:1]; Palmitoyl = CCCCCCCCCCCCCCCC(=O)*; AEEA = NCCOCCOCC(=O)O; Aib = CC(C)(N)C(=O)O

The term EC50 denotes the concentration that produces a half-maximal response. What is called Emax is the greatest response seen or fitted, relative to the assay's reference. As to `CCCCCCCCCCCCCCCC(=O)N[C@@H](CCC(=O)NCCCC[C@H](NC(=O)[C@H](CC(C)C)NC(=O)[C@H](CCCCN)NC(=O)[C@@H](NC(=O)[C@@H]1CCCN1C(=O)[C@H](NC(=O)[C@H](CC(=O)O)NC(=O)[C@H](CC(C)C)NC(=O)[C@H](CO)NC(=O)[C@H](CC(C)C)NC(=O)[C@@H](NC(=O)[C@@H](N)[C@@H](C)CC)C(C)C)C(C)C)[C@@H](C)O)C(=O)N[C@@H](CCC(N)=O)C(=O)N[C@@H](CCCCN)C(=O)N[C@@H](CC(C)C)C(=O)N[C@@H](CC(C)C)C(=O)N[C@@H](CCCCN)C(=O)N[C@@H](CCC(N)=O)C(=O)N[C@@H](CCC(=O)O)C(=O)N[C@@H](CCCNC(=N)N)C(=O)N[C@@H](CCC(N)=O)C(=O)N[C@@H](CCCNC(=N)N)C(=O)N[C@@H](CCCCN)C(=O)N[C@@H](CCC(=O)O)C(=O)N[C@@H](CCCNC(=N)N)C(=O)N[C@@H](CCC(=O)O)C(=O)NC(C)(C)C(=O)N[C@@H](C)C(=O)N[C@@H](CCC(=O)O)C(=O)N[C@@H](CCCCN)C(=O)N[C@@H](CC(N)=O)C(=O)N[C@@H](CCCCN)C(=O)N[C@@H](CCCNC(=N)N)C(=O)N[C@H](C(=O)N[C@@H](CC(C)C)C(=O)N[C@@H](CCC(=O)O)C(=O)N[C@@H](CCCNC(=N)N)C(=O)N[C@H](C(N)=O)C(C)C)[C@@H](C)CC)C(=O)O` [SEQ ID NO: 225, IVLSLDvPTKLK*QKLLKQERQRKEREAibAEKNKRILERV-NH2] (H-IVLSLD[dV]PTKLK([γGlu-Palmitoyl])QKLLKQERQRKERE[Aib]AEKNKRILERV-NH2; N-terminus assumed), the EC50 in test [1] worked out at 0.12 nM. Further, the Emax in test [2] turned out to be 58.9%.
The corresponding values for `CCCCCCCCCCCCCCCC(=O)N[C@@H](CCC(=O)NCCCC[C@H](NC(=O)[C@H](CC(C)C)NC(=O)CNC(=O)[C@@H](NC(=O)[C@@H]1CCCN1C(=O)[C@H](NC(=O)[C@H](CC(=O)O)NC(=O)[C@H](CC(C)C)NC(=O)[C@H](CO)NC(=O)[C@H](CC(C)C)NC(=O)[C@@H](NC(=O)[C@@H](N)[C@@H](C)CC)C(C)C)C(C)C)[C@@H](C)CC)C(=O)N[C@@H](CCC(N)=O)C(=O)N[C@@H](CCCCN)C(=O)N[C@@H](CC(C)C)C(=O)N[C@@H](CC(C)C)C(=O)N[C@@H](CCCCN)C(=O)N[C@@H](CCC(N)=O)C(=O)N[C@@H](CCC(N)=O)C(=O)N[C@@H](CCCNC(=N)N)C(=O)N[C@@H](CCC(N)=O)C(=O)N[C@@H](CCCNC(=N)N)C(=O)N[C@@H](CCCCN)C(=O)N[C@@H](CCC(=O)O)C(=O)N[C@@H](CCCNC(=N)N)C(=O)N[C@@H](CCC(N)=O)C(=O)N[C@@H](CCC(N)=O)C(=O)N[C@@H](C)C(=O)N[C@@H](CCC(=O)O)C(=O)N[C@@H](CCCCN)C(=O)N[C@@H](CC(N)=O)C(=O)N[C@@H](CCCCN)C(=O)N[C@@H](CCCNC(=N)N)C(=O)N[C@H](C(=O)N[C@@H](CC(C)C)C(=O)N[C@@H](CCC(=O)O)C(=O)N[C@@H](CCCNC(=N)N)C(=O)N[C@H](C(N)=O)C(C)C)[C@@H](C)CC)C(=O)O` [SEQ ID NO: 226] (H-IVLSLD[dV]PIGLK([γGlu-Palmitoyl])QKLLKQQRQRKERQQAEKNKRILERV-NH2; N-terminus assumed) are 0.04 nM and 84%.
With `CC[C@H](C)[C@H](NC(C)=O)C(=O)N[C@H](C(=O)N[C@@H](CC(C)C)C(=O)N[C@@H](CO)C(=O)N[C@@H](CC(C)C)C(=O)N[C@@H](CC(=O)O)C(=O)N[C@@H](C(=O)N1CCC[C@H]1C(=O)N[C@H](C(=O)NCC(=O)N[C@@H](CC(C)C)C(=O)N[C@@H](CCCCNC(=O)COCCOCCNC(=O)COCCOCCNC(=O)CC[C@H](NC(=O)CCCCCCCCCCCCCCCCC(=O)O)C(=O)O)C(=O)N[C@@H](CCC(N)=O)C(=O)N[C@H](C(=O)N[C@@H](CC(C)C)C(=O)N[C@@H](CC(C)C)C(=O)N[C@@H](CCC(=O)O)C(=O)N[C@@H](CCC(N)=O)C(=O)N[C@@H](CCC(=O)O)C(=O)N[C@@H](CCCNC(=N)N)C(=O)N[C@@H](CCC(N)=O)C(=O)N[C@@H](CCCCN)C(=O)NC(C)(C)C(=O)N[C@@H](CCC(N)=O)C(=O)N[C@@H](CCCNC(=N)N)C(=O)N[C@@H](CCC(=O)O)C(=O)N[C@@H](CCC(N)=O)C(=O)N[C@@H](C)C(=O)N[C@@H](CCC(=O)O)C(=O)N[C@@H](CCCCN)C(=O)N[C@@H](CC(N)=O)C(=O)N[C@@H](CCCCN)C(=O)N[C@@H](CCC(N)=O)C(=O)N[C@H](C(=O)N[C@@H](CC(C)C)C(=O)N[C@@H](CCC(=O)O)C(=O)N[C@@H](CCC(N)=O)C(=O)N[C@H](C(N)=O)C(C)C)[C@@H](C)CC)[C@@H](C)CC)[C@@H](C)CC)C(C)C)C(C)C` [compound 164] (Ac-IVLSLD[dV]PIGLK([AEEA-AEEA-γGlu-C18 diacid])QILLEQERQK[Aib]QREQAEKNKQILEQV-NH2), the EC50 in test [1] was found to be 12.6 nM. Also, the Emax in test [3] was 25.8%.
In the case of `CC[C@H](C)[C@H](N)C(=O)N[C@H](C(=O)N[C@@H](CC(C)C)C(=O)N[C@@H](CO)C(=O)N[C@@H](CC(C)C)C(=O)N[C@@H](CC(=O)O)C(=O)N[C@@H](C(=O)N1CCC[C@H]1C(=O)N[C@H](C(=O)N[C@@H](CCCCN)C(=O)N[C@@H](CC(C)C)C(=O)N[C@@H](CCCCNC(=O)CCCCCCCCCCCCCCCCC(=O)O)C(=O)N[C@@H](CCC(N)=O)C(=O)N[C@H](C(=O)N[C@@H](CC(C)C)C(=O)N[C@@H](CC(C)C)C(=O)N[C@@H](CCCCN)C(=O)N[C@@H](CCC(N)=O)C(=O)N[C@@H](CCC(=O)O)C(=O)N[C@@H](CCCNC(=N)N)C(=O)N[C@@H](CCC(N)=O)C(=O)N[C@@H](CCCCN)C(=O)N[C@@H](CCCCN)C(=O)N[C@@H](CCC(N)=O)C(=O)N[C@@H](CCCNC(=N)N)C(=O)N[C@@H](CCC(N)=O)C(=O)N[C@@H](CCC(N)=O)C(=O)N[C@@H](C)C(=O)N[C@@H](CCC(=O)O)C(=O)N[C@@H](CCCCN)C(=O)N[C@@H](CC(N)=O)C(=O)N[C@@H](CCCCN)C(=O)N[C@@H](CCC(N)=O)C(=O)N[C@H](C(=O)N[C@@H](CC(C)C)C(=O)N[C@@H](C)C(=O)N[C@@H](CCC(N)=O)C(=O)N[C@H](C(N)=O)C(C)C)[C@@H](C)CC)[C@@H](C)CC)[C@@H](C)CC)C(C)C)C(C)C` [compound 184] (H-IVLSLD[dV]PIKLK(C18 diacid)QILLKQERQKKQRQQAEKNKQILAQV-NH2; N-terminus assumed), the EC50 in test [1] turned out to be 0.42 nM; in test [4] (0% HSA, read-out: EC50 [nM], 0% HSA), 0.05 nM; in test [4] (0.1% HSA, read-out: EC50 [nM], 0.1% HSA), 2.83 nM.
